Reference: the NIST ThermoML archive (doi:10.1016/j.jct.2009.07.005)

What was measured:
[1] = xn = mol fraction of the nth substance listed; conditions: 101 kPa, Liquid, Small sample (50 mg) DSC
[2] = molar heat capacity at constant pressure; xn = mol fraction of the nth substance listed; conditions: 101 kPa, Liquid, Small sample (50 mg) DSC

C1CNCCN1 [piperazine] + O
Conditions	excess molar heat capacity, x1 = 0.05 [J/K/mol]	excess molar heat capacity, x1 = 0.1 [J/K/mol]	excess molar heat capacity, x1 = 0.15 [J/K/mol]	excess molar heat capacity, x1 = 0.2 [J/K/mol]	molar heat capacity at constant pressure, x1 = 0.05 [J/K/mol]	molar heat capacity at constant pressure, x1 = 0.1 [J/K/mol]	molar heat capacity at constant pressure, x1 = 0.15 [J/K/mol]	molar heat capacity at constant pressure, x1 = 0.2 [J/K/mol]
[1], 303.2 K	2.16	3.88	5.53	7.95	–	–	–	–
[1], 308.2 K	2.37	4.28	6.13	8.65	–	–	–	–
[1], 313.2 K	2.58	4.68	6.73	9.35	–	–	–	–
[1], 318.2 K	2.78	5.08	7.33	10.05	–	–	–	–
[1], 323.2 K	2.99	5.58	7.93	10.75	–	–	–	–
[1], 328.2 K	3.2	5.98	8.53	11.45	–	–	–	–
[1], 333.2 K	3.41	6.38	9.03	12.25	–	–	–	–
[1], 338.2 K	3.62	6.78	9.53	12.95	–	–	–	–
[1], 343.2 K	3.83	7.18	10.13	13.65	–	–	–	–
[1], 348.2 K	4.04	7.58	10.63	14.35	–	–	–	–
[1], 353.2 K	4.25	7.98	11.23	15.05	–	–	–	–
[2], 303.2 K	–	–	–	–	82.5	89.4	96.1	103.7
[2], 308.2 K	–	–	–	–	82.8	90	97	104.8
[2], 313.2 K	–	–	–	–	83.2	90.6	98	105.9
[2], 318.2 K	–	–	–	–	83.5	91.2	98.9	107.1
[2], 323.2 K	–	–	–	–	83.8	92	99.9	108.2
[2], 328.2 K	–	–	–	–	84.2	92.6	100.8	109.4
[2], 333.2 K	–	–	–	–	84.5	93.3	101.7	110.6
[2], 338.2 K	–	–	–	–	84.9	93.9	102.5	111.8
[2], 343.2 K	–	–	–	–	85.3	94.6	103.5	113
[2], 348.2 K	–	–	–	–	85.6	95.2	104.4	114.1
[2], 353.2 K	–	–	–	–	86	95.9	105.3	115.3
